According to patent publication US20140031278A1, “Novel Glucagon Analogues” (NOVO NORDISK A/S, priority 2011, published 2014):
*1 amine or outer side, *2 acyl side, *3 side chain or, on linkers, in order; H or OH if unused. Where a SMILES comes first, the peptide text is derived from it. Side-chain parts run from the residue outwards. γGlu = O=C(O)[C@H](CCC(=O)[*:2])N[*:1]

Target: T1, glucagon receptor (Homo sapiens, UniProt P47871)
T1 construct: expressed in transfected cells
Experiment: Assay (I) Glucagon activity (cAMP biosensor, FLIPR)
Type: cell-based
Conditions: HEK-293 cells with cloned glucagon receptor and cAMP biosensor; end point after 6 minutes
Description: The glucagon receptor was cloned into HEK-293 cells having a membrane bound cAMP biosensor (ACTOne™). The cells (14000 per well) were incubated (37° C., 5% CO2) overnight in 384-well plates. Next day the cells were loaded with a calcium responsive dye that only distributed into the cytoplasm. Probenecid, an inhibitor of the organic anion transporter, was added to prevent the dye from leaving the cell. A PDE inhibitor was added to prevent formatted cAMP from being degraded, The plates were placed into a […] and the glucagon analogues were added. End point data were collected after 6 minutes. An increase in intracellular cAMP was proportional to an increased in calcium concentrations in the cytoplasm. When calcium was bound the dry a fluorescence signal was generated. EC50-values were calculated in Prism5.

T1 sequence (P47871 26-477): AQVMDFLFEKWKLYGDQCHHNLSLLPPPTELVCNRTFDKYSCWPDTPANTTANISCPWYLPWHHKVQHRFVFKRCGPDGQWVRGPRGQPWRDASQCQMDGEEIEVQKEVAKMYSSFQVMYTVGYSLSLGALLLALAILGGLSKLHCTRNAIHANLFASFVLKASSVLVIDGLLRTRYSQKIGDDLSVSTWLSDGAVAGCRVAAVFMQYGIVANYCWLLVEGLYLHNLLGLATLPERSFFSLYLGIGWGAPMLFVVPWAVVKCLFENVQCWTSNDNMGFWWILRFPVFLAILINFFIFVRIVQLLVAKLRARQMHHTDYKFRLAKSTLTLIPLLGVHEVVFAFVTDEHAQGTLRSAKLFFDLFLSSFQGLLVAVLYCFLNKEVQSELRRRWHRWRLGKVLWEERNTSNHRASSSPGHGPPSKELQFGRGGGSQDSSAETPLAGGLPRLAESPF

CC(=O)N[C@@H](CCC(=O)N[C@@H](CCC(=O)N[C@@H](CCC(=O)N[C@@H](CCC(=O)NCCCC[C@H](NC(=O)[C@@H](NC(=O)[C@H](Cc1ccccc1)NC(=O)[C@H](CCC(=O)O)NC(=O)[C@H](CCC(N)=O)NC(=O)[C@H](C)NC(=O)[C@H](CCCNC(=N)N)NC(=O)[C@H](CCCNC(=N)N)NC(=O)[C@H](CO)NC(=O)[C@H](CCC(=O)O)NC(=O)[C@H](CC(C)C)NC(=O)[C@H](Cc1ccc(O)cc1)NC(=O)[C@H](CCCCN)NC(=O)[C@H](CO)NC(=O)[C@@H](NC(=O)[C@H](CC(=O)O)NC(=O)[C@H](CO)NC(=O)[C@@H](NC(=O)[C@H](Cc1ccccc1)NC(=O)[C@@H](NC(=O)CNC(=O)[C@H](CCC(N)=O)NC(=O)[C@H](CO)NC(=O)[C@@H](N)Cc1c[nH]cn1)[C@@H](C)O)[C@@H](C)O)C(C)C)C(C)C)C(=O)N[C@@H](Cc1c[nH]c2ccccc12)C(=O)N[C@@H](CC(C)C)C(=O)N[C@@H](CC(C)C)C(=O)N[C@@H](CO)C(=O)N[C@H](C(=O)O)[C@@H](C)O)C(=O)O)C(=O)O)C(=O)O)C(=O)O [Example 45, N^ε24-[(4S)-4-[[(4S)-4-[[(4S)-4-[[(4S)-4-acetamido-4-carboxybutanoyl]amino]-4-carboxybutanoyl]amino]-4-carboxybutanoyl]amino]-4-carboxybutanoyl]-[Val^10,Glu^15,Glu^21,Lys^24,Leu^27,Ser^28]-Glucagon] (H-HSQGTFTSDVSKYLESRRAQEFVK([γGlu-γGlu-γGlu-γGlu-Ac])WLLST-OH)
EC50: 0.027 nM

CC(=O)N[C@@H](CCC(=O)N[C@@H](CCC(=O)N[C@@H](CCC(=O)N[C@@H](CCC(=O)NCCCC[C@H](NC(=O)[C@@H](NC(=O)[C@H](Cc1ccccc1)NC(=O)[C@H](CC(=O)O)NC(=O)[C@H](CCC(N)=O)NC(=O)[C@H](C)NC(=O)[C@H](CCCNC(=N)N)NC(=O)[C@H](CCCNC(=N)N)NC(=O)[C@H](CC(C)C)NC(=O)[C@H](CC(=O)O)NC(=O)[C@H](CC(C)C)NC(=O)[C@H](Cc1ccc(O)cc1)NC(=O)[C@H](CCCCN)NC(=O)[C@H](CO)NC(=O)[C@@H](NC(=O)[C@H](CC(=O)O)NC(=O)[C@H](CO)NC(=O)[C@@H](NC(=O)[C@H](Cc1ccccc1)NC(=O)[C@@H](NC(=O)CNC(=O)[C@H](CCC(N)=O)NC(=O)[C@H](CO)NC(=O)[C@@H](N)Cc1c[nH]cn1)[C@@H](C)O)[C@@H](C)O)C(C)C)C(C)C)C(=O)N[C@@H](Cc1c[nH]c2ccccc12)C(=O)N[C@@H](CC(C)C)C(=O)N[C@@H](CC(C)C)C(=O)N[C@@H](CO)C(=O)N[C@H](C(=O)O)[C@@H](C)O)C(=O)O)C(=O)O)C(=O)O)C(=O)O [Example 43, N^ε24-[(4S)-4-[[(4S)-4-[[(4S)-4-[[(4S)-4-acetamido-4-carboxybutanoyl]amino]-4-carboxybutanoyl]amino]-4-carboxybutanoyl]amino]-4-carboxybutanoyl]-[Val^10,Leu^16,Lys^24,Leu^27,Ser^28]-Glucagon] (H-HSQGTFTSDVSKYLDLRRAQDFVK([γGlu-γGlu-γGlu-γGlu-Ac])WLLST-OH)
EC50: 0.016 nM
